Here are results for 17 compounds from patent US20230374025A1, “FGFR INHIBITOR COMPOUND AND USE THEREOF” (SHENZHEN KANGSU PHARMACEUTICAL TECHNOLOGY CO., LTD., priority 2021, published 2023).

As a reminder, the IC50 is the midpoint of a concentration-inhibition curve.

Holding throughout (assay type): biochemical
One test addresses T1, FGFR1 V561M (Homo sapiens, UniProt P11362, V561M).
T1 construct: purchased Signalchem F04-13G
The experiment in a line: Assay I: inhibitory activity against FGFR mutants (HTRF KinEASE-TK). The conditions noted are these: ATP 5 μM, substrate TK 1 μM. The procedure:
(§1) Assay I: Determination of Inhibitory Activity Against FGFR Mutants
(§2) 1. Reagents and Equipment
(§3) 2.1 Preparation of 1× Kinase Reaction Buffer:
(§4) 1× Kinase reaction buffer was formulated with 1× volume of 5× kinase reaction buffer and 4× volume of water; 5 mM MgCl2; and 1 mM DTT.
(§5) 2.3 Screening of Compounds:
(§6) 1. Diluting a compound 4-fold in a dilution plate with DMSO, with a starting compound concentration of 2 mM.
(§7) 2. Diluting the compound 40-fold into 1× kinase reaction buffer and shaking it on a shaker for 20 minutes.
(§8) 5. Adding 1 μl of the compound diluted in buffer to each well, sealing the plate with a sealing membrane and centrifuging the plate at 1000 g for 30 seconds and leaving it at room temperature for 10 minutes.
(§9) 6. Formulating 2.5×TK-substrate-biotin and ATP mixture with 1× enzyme reaction buffer and adding 2 μl of K-substrate-biotin/ATP mixture to the reaction plate.
(§10) 7. Sealing the plate with a sealing membrane and centrifuging the plate at 1000 g for 30 seconds and allowing it to react at room temperature for 50 minutes.
(§11) 8. Formulating 4× Sa-XL 665 (250 nM) with HTRF assay buffer.
(§12) 9. Adding 5 μl Sa-XL 665 and 5 μl TK-Antibody-Cryptate to each well, centrifuging it at 1000 g for 30 seconds, and allowing it to react for 1 hour at room temperature.
(§13) 10. Reading fluorescence signals at 615 nm (Cryptate) and 665 nm (XL665) with Biotek.
(§14) 3.1 Calculation of the ratio for each well: the ratio was calculated as 665/615 nm.
(§15) 3.3 Calculation of IC50 and plotting of inhibition curves for the compounds.
(§16) The IC50 (half inhibition concentration) of a compound was obtained using the following non-linear fitting equation, wherein data analysis was performed using Graphpad 6.0 software.
(§17) Y=Bottom+(Top−Bottom)/(1+10^((Log IC50−X)*Hill Slope)) • X: log value of compound concentration; and Y: inhibition rate (% inh)
(§18) 3.4 Validation of Results
(§19) Data were exported from Envision and analyzed manually. The ratios were converted to inhibition rates and IC50 was calculated by Prism GraphPad 6.0 from the inhibition rates. IC50 was calculated again by the ratios to verify accuracy of the results.

For the next test, the target named is T2, FGFR3 V555M (Homo sapiens, UniProt P22607, V555M).
T2 construct: purchased Signalchem F06-12GG
The description is as above. As to conditions: ATP 20 μM, substrate TK 1 μM. The procedure:
as §1, §2, §3, §4, §5, §6, §7, §8, §9, §10, §11, §12, §13, §14, §15, §16, §17, §18, §19

Another test concerns the target T3, FGFR2 V564F (Homo sapiens, UniProt P21802, V564F).
T3 construct: purchased Signalchem F05-12FG
The test is described as above. The conditions noted are these: ATP 10 μM, substrate TK 1 μM. As for the experimental part:
as §1, §2, §3, §4, §5, §6, §7, §8, §9, §10, §11, §12, §13, §14, §15, §16, §17, §18, §19

A further test has as its target T4, VEGFR2 (Homo sapiens, UniProt P35968).
T4 construct: purchased Carna 08-191
As to the kind of experiment: Assay I: VEGFR2 kinase inhibition (HTRF KinEASE-TK). The conditions noted are these: ATP 5 μM, substrate TK 1 μM. As for the experimental part:
as §1, §2, §3, §4, §5, §6, §7
3. Formulating 2×FGFR1 V561M/FGFR2 V564F/FGFR3 K650E/VEGFR2 with 1× of enzyme reaction buffer.
4. Adding 2 μl FGFR1 V561M/FGFR2 V564F/FGFR3 K650E/VEGFR2 kinase (formulated in step 3) to each well of the reaction plate.
as §8, §9, §10, §11, §12, §13, §14, §15, §16, §17, §18, §19
Positive control IC50 was within 3 times of the average value
Background: Time-resolved FRET reads energy transfer from a long-lived donor to a nearby acceptor.

T2 sequence (P22607 397-806 V555M limits assumed): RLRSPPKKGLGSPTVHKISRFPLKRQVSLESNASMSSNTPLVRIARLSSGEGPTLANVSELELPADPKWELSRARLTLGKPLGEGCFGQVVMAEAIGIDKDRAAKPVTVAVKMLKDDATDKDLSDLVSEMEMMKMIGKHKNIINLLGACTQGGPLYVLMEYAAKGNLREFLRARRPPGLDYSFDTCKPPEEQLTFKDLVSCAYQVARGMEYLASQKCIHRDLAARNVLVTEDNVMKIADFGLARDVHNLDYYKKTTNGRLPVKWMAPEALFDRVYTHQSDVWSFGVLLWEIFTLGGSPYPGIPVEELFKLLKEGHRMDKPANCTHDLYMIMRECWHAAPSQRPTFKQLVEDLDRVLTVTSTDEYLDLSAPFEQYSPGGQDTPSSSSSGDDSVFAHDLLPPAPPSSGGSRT
T1 sequence (P11362 22-822 V561M): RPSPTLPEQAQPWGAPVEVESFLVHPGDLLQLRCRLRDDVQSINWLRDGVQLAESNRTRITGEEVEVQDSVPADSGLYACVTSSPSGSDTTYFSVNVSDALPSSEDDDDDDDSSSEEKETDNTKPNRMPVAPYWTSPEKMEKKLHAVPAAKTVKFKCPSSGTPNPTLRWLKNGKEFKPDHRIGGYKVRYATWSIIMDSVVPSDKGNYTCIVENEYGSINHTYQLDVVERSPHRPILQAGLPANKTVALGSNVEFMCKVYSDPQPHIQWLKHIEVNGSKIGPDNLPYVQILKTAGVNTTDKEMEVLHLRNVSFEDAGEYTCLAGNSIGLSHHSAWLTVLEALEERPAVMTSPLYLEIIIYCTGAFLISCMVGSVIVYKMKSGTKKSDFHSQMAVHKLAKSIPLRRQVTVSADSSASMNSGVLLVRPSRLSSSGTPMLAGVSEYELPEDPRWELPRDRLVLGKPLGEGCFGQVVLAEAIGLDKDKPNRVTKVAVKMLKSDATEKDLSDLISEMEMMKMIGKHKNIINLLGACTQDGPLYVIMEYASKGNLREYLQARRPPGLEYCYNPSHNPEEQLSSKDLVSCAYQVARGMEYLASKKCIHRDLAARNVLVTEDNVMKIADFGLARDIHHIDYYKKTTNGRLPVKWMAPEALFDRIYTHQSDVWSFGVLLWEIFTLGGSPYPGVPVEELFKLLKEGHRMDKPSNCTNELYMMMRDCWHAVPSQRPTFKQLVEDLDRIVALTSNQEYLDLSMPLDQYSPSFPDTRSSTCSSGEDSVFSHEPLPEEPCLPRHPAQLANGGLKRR
T4 sequence (P35968 20-1356): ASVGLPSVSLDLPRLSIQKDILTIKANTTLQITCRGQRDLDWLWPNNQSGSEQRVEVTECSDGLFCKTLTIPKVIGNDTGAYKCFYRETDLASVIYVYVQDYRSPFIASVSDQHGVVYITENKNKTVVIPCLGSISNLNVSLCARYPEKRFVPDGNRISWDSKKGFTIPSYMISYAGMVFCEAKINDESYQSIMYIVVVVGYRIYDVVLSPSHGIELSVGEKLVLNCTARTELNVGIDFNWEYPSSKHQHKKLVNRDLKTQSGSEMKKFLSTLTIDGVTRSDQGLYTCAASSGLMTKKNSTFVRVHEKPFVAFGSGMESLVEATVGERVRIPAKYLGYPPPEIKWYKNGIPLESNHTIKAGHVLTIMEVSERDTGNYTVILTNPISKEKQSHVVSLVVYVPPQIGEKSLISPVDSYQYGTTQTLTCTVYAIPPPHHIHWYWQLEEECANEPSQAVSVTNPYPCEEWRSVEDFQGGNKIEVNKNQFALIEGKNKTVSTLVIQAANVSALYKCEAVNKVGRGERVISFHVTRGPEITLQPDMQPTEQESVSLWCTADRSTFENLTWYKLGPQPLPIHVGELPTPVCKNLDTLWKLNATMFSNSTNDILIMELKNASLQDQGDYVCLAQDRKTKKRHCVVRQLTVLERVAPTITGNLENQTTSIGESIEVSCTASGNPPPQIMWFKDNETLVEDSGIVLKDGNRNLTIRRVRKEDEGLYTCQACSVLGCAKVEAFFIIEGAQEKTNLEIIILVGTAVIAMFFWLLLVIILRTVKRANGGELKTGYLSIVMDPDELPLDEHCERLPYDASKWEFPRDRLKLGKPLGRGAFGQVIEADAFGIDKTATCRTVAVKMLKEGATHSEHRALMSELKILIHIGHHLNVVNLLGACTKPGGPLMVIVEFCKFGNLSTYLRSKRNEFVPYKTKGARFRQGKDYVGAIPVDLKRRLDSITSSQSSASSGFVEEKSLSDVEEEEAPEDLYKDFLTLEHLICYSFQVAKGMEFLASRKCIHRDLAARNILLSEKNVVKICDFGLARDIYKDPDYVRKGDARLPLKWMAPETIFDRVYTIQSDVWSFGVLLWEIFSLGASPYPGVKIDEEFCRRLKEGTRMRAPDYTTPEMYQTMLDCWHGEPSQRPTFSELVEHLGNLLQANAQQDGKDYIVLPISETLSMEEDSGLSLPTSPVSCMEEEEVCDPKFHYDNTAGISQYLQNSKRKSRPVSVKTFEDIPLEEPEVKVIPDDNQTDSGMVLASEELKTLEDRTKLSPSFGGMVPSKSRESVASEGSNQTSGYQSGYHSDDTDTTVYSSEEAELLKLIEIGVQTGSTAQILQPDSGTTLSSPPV
T3 sequence (P21802 22-821 V564F): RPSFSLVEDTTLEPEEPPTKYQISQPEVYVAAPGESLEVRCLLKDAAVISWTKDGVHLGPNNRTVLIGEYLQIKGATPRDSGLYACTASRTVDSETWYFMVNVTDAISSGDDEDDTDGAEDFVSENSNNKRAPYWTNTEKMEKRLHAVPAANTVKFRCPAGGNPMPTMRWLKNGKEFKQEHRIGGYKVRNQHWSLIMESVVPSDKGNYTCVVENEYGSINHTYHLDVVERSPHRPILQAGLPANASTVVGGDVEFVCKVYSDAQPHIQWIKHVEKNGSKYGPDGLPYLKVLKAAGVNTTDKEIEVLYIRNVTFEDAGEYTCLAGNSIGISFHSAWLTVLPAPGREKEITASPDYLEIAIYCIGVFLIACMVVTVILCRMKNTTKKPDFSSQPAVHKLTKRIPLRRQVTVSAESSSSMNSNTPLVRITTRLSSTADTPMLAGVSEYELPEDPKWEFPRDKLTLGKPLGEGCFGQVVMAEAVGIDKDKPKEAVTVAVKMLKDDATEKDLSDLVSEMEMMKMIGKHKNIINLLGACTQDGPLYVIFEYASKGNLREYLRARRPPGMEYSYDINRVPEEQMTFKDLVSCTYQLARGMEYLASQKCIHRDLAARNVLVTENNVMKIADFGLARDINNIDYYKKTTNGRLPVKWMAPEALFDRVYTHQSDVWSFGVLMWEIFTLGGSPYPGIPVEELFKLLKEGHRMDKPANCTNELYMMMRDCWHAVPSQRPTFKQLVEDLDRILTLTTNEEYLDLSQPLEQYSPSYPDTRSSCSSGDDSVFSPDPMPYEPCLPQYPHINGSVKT

For `CC(Oc1ccc2[nH]nc(-c3nc4c([nH]3)CNC4)c2c1)c1c(Cl)cncc1Cl` (centres unmarked) [Compound 19, 5-(1-(3,5-dichloropyridin-4-yl)ethoxy)-3-(1,4,5,6-tetrahydropyrrolo[3,4-d]imidazol-2-yl)-1H-indazole], the IC50 against FGFR1 V561M is 0.6 nM; against FGFR3 V555M, 0.76 nM; on FGFR2 V564F it was 0.59 nM; at VEGFR2 it was 31 nM.

Consider `CC(Oc1ccc2[nH]nc(-c3nc4c([nH]3)CN(C3CC(O)C3)C4)c2c1)c1c(Cl)cncc1Cl` (centres unmarked) [Compound 21, 3-(2-(5-(1-(3,5-dichloropyridin-4-yl)ethoxy)-1H-indazol-3-yl)-4,6-dihydropyrrolo[3,4-d]imidazol-5(1H)-yl)cyclobutan-1-ol], for which the concentration for half-maximal inhibition (IC50) on FGFR1 V561M came to 0.97 nM; against FGFR3 V555M, 0.64 nM; against FGFR2 V564F, 0.66 nM; on VEGFR2 it was 26 nM.

`CC(Oc1ccc2[nH]nc(-c3nc4c([nH]3)CN(C3CCC(O)CC3)C4)c2c1)c1c(Cl)cncc1Cl` (centres unmarked) [Compound 22, 4-(2-(5-(1-(3,5-dichloropyridin-4-yl)ethoxy)-1H-indazol-3-yl)-4,6-dihydropyrrolo[3,4-d]imidazol-5(1H)-yl)cyclohexan-1-ol]: the IC50 on FGFR1 V561M was 1.8 nM; against FGFR3 V555M, 0.91 nM; on FGFR2 V564F, 0.76 nM; at VEGFR2, 11.7 nM.

Consider `CCOC(=O)N1Cc2nc(-c3n[nH]c4ccc(OC(C)c5c(Cl)cncc5Cl)cc34)[nH]c2C1` (centres unmarked) [Compound 23, Ethyl 2-(5-(1-(3,5-dichloropyridin-4-yl)ethoxy)-1H-indazol-3-yl)-4,6-dihydropyrrolo[3,4-d]imidazole-5(1H)-carboxylate], for which the IC50 on FGFR1 V561M is 1.2 nM; against FGFR3 V555M it was 1.3 nM; on FGFR2 V564F, 0.48 nM; against VEGFR2, 85 nM.

As for `CC(Oc1ccc2[nH]nc(-c3nc4c([nH]3)CN(C(=O)OCCC#N)C4)c2c1)c1c(Cl)cncc1Cl` (centres unmarked) [Compound 24, 2-cyanoethyl 2-(5-(1-(3,5-dichloropyridin-4-yl)ethoxy)-1H-indazol-3-yl)-4,6-dihydropyrrolo[3,4-d]imidazole-5(1H)-carboxylate], the IC50 on FGFR1 V561M was 2.4 nM; on FGFR3 V555M, 4.6 nM; on FGFR2 V564F it was 1.4 nM; at VEGFR2, 27.5 nM.

`CC(Oc1ccc2[nH]nc(-c3nc4c([nH]3)CN(C(=O)C3CC3)C4)c2c1)c1c(Cl)cncc1Cl` (centres unmarked) [Compound 25, Cyclopropyl (2-(5-(1-(3,5-dichloropyridin-4-yl)ethoxy)-1H-indazol-3-yl)-4,6-dihydropyrrolo[3,4-d]imidazol-5(1H)-yl)ketone]: the IC50 stood at 0.98 nM at FGFR1 V561M, 0.26 nM against FGFR3 V555M, 0.41 nM against FGFR2 V564F and 10 nM on VEGFR2.

Regarding `CC(Oc1ccc2[nH]nc(-c3nc4c([nH]3)CN(C(=O)C3CC(O)C3)C4)c2c1)c1c(Cl)cncc1Cl` (centres unmarked) [Compound 26, (2-(5-(1-(3,5-dichloropyridin-4-yl)ethoxy)-1H-indazol-3-yl)-4,6-dihydropyrrolo[3,4-d]imidazol-5(1H)-yl)(3-hydroxycyclobutyl)ketone], the IC50 was found to be 0.38 nM against FGFR1 V561M, 0.13 nM on FGFR3 V555M, 0.17 nM at FGFR2 V564F and 7.1 nM at VEGFR2.

As for `CC(Oc1ccc2[nH]nc(-c3nc4c([nH]3)CN(C(=O)CC#N)C4)c2c1)c1c(Cl)cncc1Cl` (centres unmarked) [Compound 27, 3-(2-(5-(1-(3,5-dichloropyridin-4-yl)ethoxy)-1H-indazol-3-yl)-4,6-dihydropyrrolo[3,4-d]imidazol-5(1H)-yl)-3-oxopropionitrile], the 50% inhibitory concentration (IC50) against FGFR1 V561M turned out to be 0.94 nM; against FGFR3 V555M it was 0.4 nM; on FGFR2 V564F it was 0.16 nM; at VEGFR2, 37.5 nM.

Take `CCS(=O)(=O)N1Cc2nc(-c3n[nH]c4ccc(OC(C)c5c(Cl)cncc5Cl)cc34)[nH]c2C1` (centres unmarked) [Compound 28, 5-(1-(3,5-dichloropyridin-4-yl)ethoxy)-3-(5-(ethylsulfonyl)-1,4,5,6-tetrahydropyrrolo[3,4-d]imidazol-2-yl)-1H-indazole]: the half-inhibitory concentration (IC50) at FGFR1 V561M was found to be 1.6 nM; against FGFR3 V555M it was 0.52 nM; on FGFR2 V564F it was 0.3 nM; against VEGFR2, 30 nM.

For `CC(Oc1ccc2[nH]nc(-c3nc4c([nH]3)CN(S(=O)(=O)C3CC3)C4)c2c1)c1c(Cl)cncc1Cl` (centres unmarked) [Compound 29, 3-(5-(Cyclopropylsulfonyl)-1,4,5,6-tetrahydropyrrolo[3,4-d]imidazol-2-yl)-5-(1-(3,5-dichloropyridin-4-yl)ethoxy)-1H-indazole], the IC50 on FGFR1 V561M came out at 1.2 nM; on FGFR3 V555M, 0.7 nM; against FGFR2 V564F, 1.6 nM; on VEGFR2 it was 64 nM.

In the case of `CC(Oc1ccc2[nH]nc(-c3nc4c([nH]3)CN(S(=O)(=O)C(C)C)C4)c2c1)c1c(Cl)cncc1Cl` (centres unmarked) [Compound 30, 5-(1-(3,5-dichloropyridin-4-yl)ethoxy)-3-(5-(isopropylsulfonyl)-1,4,5,6-tetrahydropyrrolo[3,4-d]imidazol-2-yl)-1H-indazole], the IC50 on FGFR1 V561M worked out at 0.4 nM; at FGFR3 V555M, 0.6 nM; at FGFR2 V564F, 0.3 nM; at VEGFR2, 96 nM.

For the compound `CC(Oc1ccc2[nH]nc(-c3nc4c([nH]3)CN(C(=O)CN3CCC(O)C3)C4)c2c1)c1c(Cl)cncc1Cl` (centres unmarked) [Compound 31, 1-(2-(5-(1-(3,5-dichloropyridin-4-yl)ethoxy)-1H-indazol-3-yl)-4,6-dihydropyrrolo[3,4-d]imidazol-5(1H)-yl)-2-(3-hydroxypyrrolidin-1-yl)ethan-1-one], the IC50 is 0.67 nM against FGFR1 V561M, 0.1 nM on FGFR3 V555M, 0.15 nM at FGFR2 V564F and 14 nM at VEGFR2.

Consider `CC(Oc1ccc2[nH]nc(-c3nc4c([nH]3)CN(C(=O)CN3CCC(C#N)C3)C4)c2c1)c1c(Cl)cncc1Cl` (centres unmarked) [Compound 32, 1-(2-(2-(5-(1-(3,5-dichloropyridin-4-yl)ethoxy)-1H-indazol-3-yl)-4,6-dihydropyrrolo[3,4-d]imidazol-5(1H)-yl)-2-oxoethyl)pyrrolidine-3-carbonitrile], for which the half-inhibitory concentration (IC50) against FGFR1 V561M stood at 1.1 nM; against FGFR3 V555M it was 0.19 nM; on FGFR2 V564F, 1.2 nM; at VEGFR2, 3.7 nM.

As to `CNC(=O)N1Cc2nc(-c3n[nH]c4ccc(O[C@H](C)c5c(Cl)cncc5Cl)cc34)[nH]c2C1` [Compound 33, (R)-2-(5-(1-(3,5-dichloropyridin-4-yl)ethoxy)-1H-indazol-3-yl)-N-methyl-4,6-dihydropyrrolo[3,4-d]imidazole-5(1H)-carboxamide], the IC50 on FGFR1 V561M is 1.3 nM; against FGFR3 V555M it was 0.46 nM; at FGFR2 V564F, 0.45 nM; at VEGFR2, 6.3 nM.

As for `C[C@@H](Oc1ccc2[nH]nc(-c3nc4c([nH]3)CN(C(=O)N(C)C)C4)c2c1)c1c(Cl)cncc1Cl` [Compound 34, (R)-2-(5-(1-(3,5-dichloropyridin-4-yl)ethoxy)-1H-indazol-3-yl)-N,N-dimethyl-4,6-dihydropyrrolo[3,4-d]imidazole-5(1H)-carboxamide], the IC50 on FGFR1 V561M is 0.46 nM; on FGFR3 V555M, 0.27 nM; against FGFR2 V564F, 0.29 nM; against VEGFR2, 1.7 nM.

On to `C[C@@H](Oc1ccc2[nH]nc(-c3nc4c([nH]3)CN(C3CCN(C)C3)C4)c2c1)c1c(Cl)cncc1Cl` (stereo partly drawn) [Compound 36, 5-((R)-1-(3,5-Dichloropyridin-4-yl)ethoxy)-3-(5-(1-methylpyrrolidin-3-yl)-1,4,5,6-tetrahydropyrrolo[3,4-d]imidazol-2-yl)-1H-indazole], for which the IC50 at FGFR1 V561M was 1.9 nM; against FGFR3 V555M it was 0.31 nM; at FGFR2 V564F it was 0.61 nM; at VEGFR2, 27.5 nM.

As to `CC(C1CCN(C)CC1)N1Cc2nc(-c3n[nH]c4ccc(O[C@H](C)c5c(Cl)cncc5Cl)cc34)[nH]c2C1` (stereo partly drawn) [Compound 37, 5-((R)-1-(3,5-Dichloropyridin-4-yl)ethoxy)-3-(5-(1-(1-methylpiperidin-4-yl)ethyl)-1,4,5,6-tetrahydropyrrolo[3,4-d]imidazol-2-yl)-1H-indazole], the half-maximal inhibitory concentration (IC50) against FGFR1 V561M was 3.9 nM; on FGFR3 V555M, 0.58 nM; against FGFR2 V564F it was 0.68 nM; on VEGFR2, 49.3 nM.
